# Experimental data as given in BindingDB's records for doi:10.1016/j.bmc.2017.06.015 (China Pharmaceutical University, 2017).
# Tests used:
# [1] = Inhibition of ABCB1 in human K562/A02 cells assessed as potentiation of adriamycin-induced cytotoxicity by measuring ADR IC50 at 5 uM measured after 48 hrs by MTT assay (Rvb = 43.75 to 96.91 uM)
# [2] = molecular target: ATP-dependent translocase ABCB1 (Homo sapiens, UniProt P08183); test: Inhibition of ABCB1 in human K562/A02 cells assessed as potentiation of adriamycin-induced cytotoxicity by measuring ADR IC50 at 5 uM measured after 48 hrs by MTT assay (Rvb = 43.75 to 96.91 uM)
# [3] = Inhibition of ABCB1 in human K562/A02 cells assessed as potentiation of adriamycin-induced cytotoxicity by measuring ADR IC50 measured after 48 hrs by MTT assay (Rvb = 51.34 +/- 5.1 uM)
# [4] = Inhibition of ABCB1 in human K562/A02 cells assessed as potentiation of adriamycin-induced cytotoxicity by measuring ADR IC50 treated for 48 hrs followed by compound washout measured after 12 hrs by MTT assay (Rvb = 51.34 +/- 5.1 uM)
# [5] = Inhibition of ABCB1 in human K562/A02 cells assessed as potentiation of adriamycin-induced cytotoxicity by measuring ADR IC50 treated for 48 hrs followed by compound washout measured after 24 hrs by MTT assay (Rvb = 51.34 +/- 5.1 uM)
# [6] = Inhibition of ABCB1 in human K562/A02 cells assessed as potentiation of adriamycin-induced cytotoxicity by measuring ADR IC50 treated for 48 hrs followed by compound washout measured after 6 hrs by MTT assay (Rvb = 51.34 +/- 5.1 uM)
# [7] = Inhibition of ABCB1 in human K562/A02 cells assessed as potentiation of adriamycin-induced cytotoxicity by measuring ADR IC50 treated for 48 hrs followed by compound washout measured immediately by MTT assay (Rvb = 51.34 +/- 5.1 uM)
# [8] = Inhibition of ABCB1 in human K562/A02 cells assessed as potentiation of adriamycin-induced cytotoxicity by measuring ADR IC50 at 1 uM measured after 48 hrs by MTT assay (Rvb = 43.75 uM)
# [9] = Inhibition of ABCB1 in human K562/A02 cells assessed as potentiation of adriamycin-induced cytotoxicity by measuring ADR IC50 at 0.1 uM measured after 48 hrs by MTT assay (Rvb = 43.75 uM)
# [10] = Inhibition of ABCB1 in human K562/A02 cells assessed as potentiation of adriamycin-induced cytotoxicity measured after 48 hrs by MTT assay
# [11] = Inhibition of ABCB1 in human K562/A02 cells assessed as potentiation of adriamycin-induced cytotoxicity by measuring ADR IC50 at 0.05 uM measured after 48 hrs by MTT assay (Rvb = 43.75 uM)
# [12] = Inhibition of ABCB1 in human K562/A02 cells assessed as potentiation of adriamycin-induced cytotoxicity by measuring ADR IC50 at 2.5 uM measured after 48 hrs by MTT assay (Rvb = 43.75 uM)
# [13] = Inhibition of ABCB1 in human K562/A02 cells assessed as potentiation of adriamycin-induced cytotoxicity by measuring ADR IC50 at 0.5 uM measured after 48 hrs by MTT assay (Rvb = 43.75 uM)
# [14] = Inhibition of ABCB1 in human K562/A02 cells assessed as potentiation of adriamycin-induced cytotoxicity by measuring ADR IC50 at 0.25 uM measured after 48 hrs by MTT assay (Rvb = 43.75 uM)
# [15] = Inhibition of ABCB1 in human K562/A02 cells assessed as potentiation of adriamycin-induced cytotoxicity by measuring ADR IC50 at 0.025 uM measured after 48 hrs by MTT assay (Rvb = 43.75 uM)
# Chain of ATP-dependent translocase ABCB1 (P08183 whole entry): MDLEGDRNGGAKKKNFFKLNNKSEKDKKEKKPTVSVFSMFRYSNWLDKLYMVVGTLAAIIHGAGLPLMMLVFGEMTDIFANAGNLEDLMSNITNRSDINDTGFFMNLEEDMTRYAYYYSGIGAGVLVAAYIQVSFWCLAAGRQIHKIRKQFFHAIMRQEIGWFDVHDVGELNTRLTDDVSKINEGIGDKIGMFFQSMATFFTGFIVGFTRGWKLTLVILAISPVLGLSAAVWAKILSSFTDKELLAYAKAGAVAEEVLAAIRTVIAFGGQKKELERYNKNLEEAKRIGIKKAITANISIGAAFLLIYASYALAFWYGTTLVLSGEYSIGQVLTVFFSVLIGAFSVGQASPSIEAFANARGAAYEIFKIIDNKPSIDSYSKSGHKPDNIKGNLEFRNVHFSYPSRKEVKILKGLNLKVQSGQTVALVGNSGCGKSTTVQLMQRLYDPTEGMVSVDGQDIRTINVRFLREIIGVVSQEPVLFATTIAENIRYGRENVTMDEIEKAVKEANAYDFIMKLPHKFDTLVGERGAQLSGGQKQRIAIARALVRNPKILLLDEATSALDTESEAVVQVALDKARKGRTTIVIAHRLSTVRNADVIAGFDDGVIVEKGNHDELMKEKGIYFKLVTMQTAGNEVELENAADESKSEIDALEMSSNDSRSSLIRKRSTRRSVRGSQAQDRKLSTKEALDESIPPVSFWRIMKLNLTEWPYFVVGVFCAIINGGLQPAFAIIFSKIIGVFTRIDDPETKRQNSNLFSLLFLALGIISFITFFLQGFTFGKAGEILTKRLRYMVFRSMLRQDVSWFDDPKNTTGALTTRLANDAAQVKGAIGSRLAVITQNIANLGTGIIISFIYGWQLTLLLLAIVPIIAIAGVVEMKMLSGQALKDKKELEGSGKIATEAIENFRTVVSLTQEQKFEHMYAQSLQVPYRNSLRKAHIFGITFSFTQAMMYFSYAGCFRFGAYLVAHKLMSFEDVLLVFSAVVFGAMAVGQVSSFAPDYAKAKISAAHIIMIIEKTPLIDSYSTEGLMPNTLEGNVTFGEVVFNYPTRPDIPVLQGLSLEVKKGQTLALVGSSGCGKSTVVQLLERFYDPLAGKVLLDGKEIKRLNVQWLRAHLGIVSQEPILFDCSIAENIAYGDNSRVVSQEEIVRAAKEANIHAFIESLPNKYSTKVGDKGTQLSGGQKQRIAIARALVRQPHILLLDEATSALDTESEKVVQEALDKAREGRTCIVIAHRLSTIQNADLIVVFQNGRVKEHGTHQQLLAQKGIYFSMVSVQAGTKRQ
smiles,measurement,setting,value
COc1cc2c(cc1OC)CN(CCn1cc(COc3ccccc3NC(=O)c3ccc(C(C)(C)C)cc3)nn1)CC2,IC50,[1],3.42 µM
COc1cc2c(cc1OC)CN(CCn1cc(COc3ccccc3C(=O)Nc3ccccc3)nn1)CC2,IC50,[1],25.5 µM
COc1cc2c(cc1OC)CN(CCn1cc(COc3ccccc3C(=O)Nc3cc(OC)c(OC)c(OC)c3)nn1)CC2,IC50,[1],31.9 µM
COc1cc2c(cc1OC)CN(CCn1cc(COc3ccccc3C(=O)Nc3ccc(OC(F)(F)F)cc3)nn1)CC2,IC50,[1],4.52 µM
COc1cc2c(cc1OC)CN(CCn1cc(COc3ccccc3C(=O)Nc3ccc(Cl)cc3)nn1)CC2,IC50,[1],6.93 µM
COc1cccc(NC(=O)c2ccccc2OCc2cn(CCN3CCc4cc(OC)c(OC)cc4C3)nn2)c1,IC50,[2],8.73 µM
COc1ccc(NC(=O)c2ccccc2OCc2cn(CCN3CCc4cc(OC)c(OC)cc4C3)nn2)cc1,IC50,[1],8.38 µM
COc1cc2c(cc1OC)CN(CCc1ccc(NC(=O)c3cc(OC)c(OC)cc3NC(=O)c3cnc4ccccc4c3)cc1)CC2,IC50,[1],1.97 µM
same,IC50,[3],1600 nM
same,IC50,[4],8.28 µM
same,IC50,[5],14.4 µM
same,IC50,[6],4.97 µM
same,IC50,[7],3.02 µM
COc1cc2c(cc1OC)CN(CCn1cc(COc3ccccc3C(=O)Nc3ccc(C(C)(C)C)cc3)nn1)CC2,IC50,[2],1.27 µM
same,IC50,[3],1260 nM
same,IC50,[8],6.02 µM
same,IC50,[4],10.3 µM
same,IC50,[5],17.2 µM
same,IC50,[9],34.9 µM
same,EC50,[10],256 nM
same,IC50,[11],37.2 µM
same,IC50,[12],3.33 µM
same,IC50,[13],12.5 µM
same,IC50,[14],18.4 µM
same,IC50,[15],37.2 µM
same,IC50,[6],6.32 µM
same,IC50,[7],4.33 µM
CCCCc1ccc(NC(=O)c2ccccc2OCc2cn(CCN3CCc4cc(OC)c(OC)cc4C3)nn2)cc1,IC50,[1],6.25 µM
COc1cc2c(cc1OC)CN(CCn1cc(COc3ccccc3C(=O)Nc3cccc(C)c3)nn1)CC2,IC50,[1],12.2 µM
COc1cc2c(cc1OC)CN(CCn1cc(COc3ccccc3C(=O)Nc3cccc([N+](=O)[O-])c3)nn1)CC2,IC50,[1],27.7 µM
COc1cc2c(cc1OC)CN(CCn1cc(COc3ccccc3C(=O)Nc3cccc(Cl)c3)nn1)CC2,IC50,[1],22.8 µM
COc1cc2c(cc1OC)CN(CCn1cc(COc3ccccc3C(=O)Nc3ccc([N+](=O)[O-])cc3)nn1)CC2,IC50,[1],21.1 µM
COc1cc2c(cc1OC)CN(CCn1cc(COc3ccccc3C(=O)Nc3ccc(F)cc3)nn1)CC2,IC50,[1],8.29 µM
COc1cc2c(cc1OC)CN(CCn1cc(COc3ccccc3C(=O)Nc3ccccc3[N+](=O)[O-])nn1)CC2,IC50,[1],26.9 µM
COc1cc2c(cc1OC)CN(CCn1cc(COc3ccccc3C(=O)Nc3ccc(C)cc3)nn1)CC2,IC50,[1],7.65 µM
COc1ccc(NC(=O)c2ccccc2OCc2cn(CCN3CCc4cc(OC)c(OC)cc4C3)nn2)cc1OC,IC50,[1],7.82 µM
